Series [1] has as its system KKA^y mice. Put plainly: Hypoglycemic and hypolipidemic (hypotriglyceridemic) actions in mice. It is filed as in vivo. As to conditions: Mus musculus, po, 96 h, 0.01% in powdery diet, four days. The method, then: Hypoglycemic and Hypolipidemic (Hypotriglyceridemic) Actions in Mice
Test compounds were mixed in a powdery diet (CE-2, Japan Clea) at the concentration of 0.01%, and freely given to KKA^y mice (11 to 12 weeks old, 5 mice per group), a model of type 2 diabetes mellitus, for four days. During this period, water was given freely. Blood was sampled from orbital venous plexus, and glucose and triglyceride levels in plasma separated from the blood were determined enzymatically using L type Wako Glu2 (Wako Pure Chemical Industries, Ltd.) or L type Wako TG.H (Wako Pure Chemical Industries, Ltd.), respectively.
In the Table, “hypoglycemic action (%)” represents a percent reduction (%) of the blood glucose level in the treatment group when the blood glucose level in the non-treatment group is taken as 100%. In addition, “hypolipidemic action (%)” represents a percent reduction (%) of the blood triglyceride level in the treatment group when the blood triglyceride level in the non-treatment group is taken as 100%.

In series [2] the test system is KKA^y mice. Put plainly: Total cholesterol lowering action and plasma anti-arteriosclerosis index-enhancing action in mice. It is filed as in vivo. The settings on record: Mus musculus, po, 96 h, 0.01% in powdery diet, four days; for change in vivo at 0.01 % in diet: percent increase of index [(HDL cholesterol/total cholesterol)×100] vs non-treatment group (100%); for inhibition in vivo at 0.01 % in diet: percent reduction of total cholesterol level vs non-treatment group (100%). The method, then:
Total Cholesterol Lowering Action and Plasma Anti-Arteriosclerosis Index-Enhancing Action in Mice
Test compounds were mixed in a powdery diet (CE-2, Japan Clea concentration of 0.01%, and freely given to KKA^y mice (11 to 12 weeks old, 5 mice per group), a model of type 2 diabetes mellitus, for four days. During this period, water was given freely. Blood was sampled from orbital venous plexus, and components in plasma separated from the blood were determined. Total cholesterol levels were determined using L type Wako Cholesterol (Wako Pure Chemical Industries, Ltd.). Precipitation reagent for HDL cholesterol was added to a part of the plasma to precipitate non-HDL lipoprotein, and cholesterol (HDL cholesterol) in the resulting supernatant was determined. The plasma anti-arteriosclerosis index [(HDL cholesterol/total cholesterol)×100] was calculated using these cholesterol levels.
In the Table, “total cholesterol lowering action (%)” represents a percent reduction (%) of the total cholesterol level in the treatment group when the total cholesterol level in the non-treatment group is taken as 100%. In addition, “plasma anti-arteriosclerosis index-enhancing action (%)” represents a percent increase (%) of the plasma anti-arteriosclerosis index in the treatment group when the plasma anti-arteriosclerosis index in the non-treatment group is taken as 100%.

The target in the next series is T1, PPARγ-RXRα heterodimer (Homo sapiens, UniProt P37231).
T1 construct: expressed in transfected cells
T1 sequence (P37231 1-477 isoform P37231-2): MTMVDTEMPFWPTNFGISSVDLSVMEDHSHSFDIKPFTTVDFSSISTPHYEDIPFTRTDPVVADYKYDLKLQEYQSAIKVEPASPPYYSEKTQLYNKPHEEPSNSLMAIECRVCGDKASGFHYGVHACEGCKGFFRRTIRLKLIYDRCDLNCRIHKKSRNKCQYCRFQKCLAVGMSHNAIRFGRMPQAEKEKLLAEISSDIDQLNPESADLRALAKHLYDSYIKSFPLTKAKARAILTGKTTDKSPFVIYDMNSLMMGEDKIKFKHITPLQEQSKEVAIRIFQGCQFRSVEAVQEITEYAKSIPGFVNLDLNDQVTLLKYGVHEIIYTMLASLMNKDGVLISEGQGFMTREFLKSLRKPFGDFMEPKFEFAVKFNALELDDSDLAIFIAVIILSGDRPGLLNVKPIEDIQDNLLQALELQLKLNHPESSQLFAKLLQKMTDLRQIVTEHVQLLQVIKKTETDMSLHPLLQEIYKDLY
T1 sequence (P19793 1-462 partner): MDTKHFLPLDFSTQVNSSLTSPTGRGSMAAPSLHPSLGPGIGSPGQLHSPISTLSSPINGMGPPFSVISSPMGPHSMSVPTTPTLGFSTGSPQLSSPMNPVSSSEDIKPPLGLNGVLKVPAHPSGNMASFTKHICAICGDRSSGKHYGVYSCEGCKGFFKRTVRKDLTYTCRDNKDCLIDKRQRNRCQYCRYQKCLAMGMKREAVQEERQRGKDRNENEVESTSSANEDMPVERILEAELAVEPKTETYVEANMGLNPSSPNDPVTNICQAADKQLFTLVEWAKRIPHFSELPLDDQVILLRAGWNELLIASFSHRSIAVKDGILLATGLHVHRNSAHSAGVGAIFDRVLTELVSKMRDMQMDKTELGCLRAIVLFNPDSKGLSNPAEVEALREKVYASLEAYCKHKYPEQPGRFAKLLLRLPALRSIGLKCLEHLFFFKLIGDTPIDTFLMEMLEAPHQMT
Nature of the series: PPARγ-RXRα heterodimer ligand activity (luciferase reporter, PPARγ:RXRα:4ERPP/CHO-K1 cells). It is filed as cell-based. As to conditions: concentration for 50% of maximum fold induction of luciferase, 48 hrs. The method, then:
(PPARγ-RXRα Heterodimer Ligand Activity)
PPARγ:RXRα:4ERPP/CHO-K1 cells obtained in Reference Example 8a were cultured in HAM F12 medium (manufactured by NISSUI SEIYAKU) containing 10% fetal bovine serum [manufactured by Life Technologies, Inc., USA], seeded in a 96-well white plate [manufactured by Corning Coster Corporation, USA] at the density of 2×10^4 cells/well and cultured in a CO2 gas incubator at 37° C. overnight.
After washing the 96-well white plate with PBS (Phosphate-buffered saline), 90 μl of HAM F12 medium containing 0.1% fatty acid-free bovine serum albumin (BSA) and 10 μl of test compound were added, and the cells were cultured in a CO2 gas incubator at 37° C. for 48 hrs. The medium was removed and 40 μl of PicaGene 7.5 (manufactured by Wako Pure Chemical Industries, Ltd.) was added. After stirring, the luciferase activity was determined using Lumistar [manufactured by BMG Labtechnologies GmbH, Germany].
The fold induction was calculated from the luciferase activity of each test compound when the luciferase activity of the non-treatment group is taken as 1. The values of the test compound concentration and the fold induction were analyzed using PRISM 2.01 (produced by GraphPad Software Inc. USA) to calculate the EC50 values, the effective concentration of a test compound for 50% of the maximum fold induction.
Introduction of Human PPARγ- and RXRα-Expression Plasmid and Reporter Plasmid into CHO-K1 Cell and Establishment of Expressed Cell
After a CHO-K1 cell cultured in a tissue culture flask (750 ml) (produced by Corning Costar Corporation, USA) containing HAM F12 medium (produced by NISSUI SEIYAKU) supplemented with 10% fetal bovine serum (produced by Life Technologies, Inc., USA) was scraped by treating with 0.5 g/L trypsin-0.2 g/L EDTA (ethylenediaminetetraacetic acid) (produced by Life Technologies, Inc., USA), the cell was washed with PBS (phosphate-buffered saline) (produced by Life Technologies, Inc., USA), centrifuged (1000 rpm, 5 minutes), and then suspended in PBS. Subsequently, a DNA was introduced into the cell under the conditions shown below using GENE PULSER (produced by Bio-Rad Laboratories, USA).
Namely, to a cuvette having a 0.4 cm gap, added were 8×10^6 cells and 10 μg of plasmid pVgRXR2-hPPARγ obtained in Reference Example 7a and 10 μg of reporter plasmid pGL3-4ERPP-TK neo obtained in Reference Example 4a, which was subjected to electroporation at the voltage of 0.25 kV under the capacitance of 960 μF. Subsequently, the cell was transferred into a HAM F12 medium containing 10% fetal bovine serum and cultured for 24 hours and then the cell was scraped again and centrifuged, and then suspended in HAM F12 medium containing 10% fetal bovine serum supplemented with 500 μg/ml of GENETICIN, (produced by Life Technologies, Inc., USA) and 250 μg /ml of ZEOCIN (produced by Invitrogen, USA). The obtained suspension was diluted to the density of 10^4 cells/ml and inoculated to a 96-well plate (produced by Corning Costar Corporation, USA), which was cultured in a CO2 gas incubator at 37° C., whereby obtaining a GENETICIN- and ZEOCIN-resistant transformant.
Subsequently, after the transformant cell line thus obtained was cultured in a 24-well plate (produced by Corning Costar Corporation, USA), selected was a cell line in which the luciferase was expressed and induced, i.e., PPARγ:RXRα:4ERPP/CHO-K1 cell by the addition of 10 μM pioglitazone hydrochloride.

Where [3] appears, read: percent reduction of blood glucose level vs non-treatment group (100%), read-out: Hypoglycemic action (%).
Where [4] appears, read: percent reduction of blood triglyceride level vs non-treatment group (100%), read-out: Hypolipidemic action (%).

Molecules are shown by their SMILES.

Turning to `Cc1oc(-c2ccccc2)nc1COc1ccc(COc2nn(-c3ccccc3)cc2CC(=O)O)cn1` [Example 54, [3-[6-(5-methyl-2-phenyl-4-oxazolylmethoxy)-3-pyridylmethoxy]-1-phenyl-1H-pyrazol-4-yl]acetic acid], the melting point lay within 164 to 165 °C. Moreover, in the series on KKA^y mice [1] (setting [3]), the inhibition in vivo at 0.01 % in diet was determined as 52%. Also, in the series with KKA^y mice [1] (setting [4]), the inhibition in vivo at 0.01 % in diet is 89%. Also, in the series with KKA^y mice [2], the change in vivo at 0.01 % in diet is 14% and the inhibition in vivo at 0.01 % in diet stood at 18%. For the same compound, the 50% effective concentration (EC50) on PPARγ-RXRα heterodimer was found to be 0.64 nM.

For `COc1cc(COc2nn(-c3ccccc3)cc2CC(=O)O)ccc1OCc1nc(-c2ccccc2)oc1C` [Example 52, [3-[3-methoxy-4-(5-methyl-2-phenyl-4-oxazolylmethoxy)benzyloxy]-1-phenyl-1H-pyrazol-4-yl]acetic acid], the melting point lay in the range of 147 to 148 °C. Also, the inhibition in vivo at 0.01 % in diet in the series on KKA^y mice [1] (setting [3]) stood at 50%. For the same compound, the inhibition in vivo at 0.01 % in diet in the series with KKA^y mice [1] (setting [4]) was 82%. Further, in the series with KKA^y mice [2], the change in vivo at 0.01 % in diet was 16% and the inhibition in vivo at 0.01 % in diet turned out to be 22%. At PPARγ-RXRα heterodimer, this compound gave an EC50 of 0.38 nM.

Compound `Cc1oc(-c2ccccc2)nc1COc1ccc(Cc2nc(CCC(=O)O)c(-c3ccccc3)o2)cc1` [Example 6, 3-[2-[4-(5-methyl-2-phenyl-4-oxazolylmethoxy)benzyl]-5-phenyl-4-oxazolyl]propionic acid] displayed a melting point of 136 to 137 °C. Further, in the series on KKA^y mice [1] (setting [3]), the inhibition in vivo at 0.01 % in diet turned out to be 46%. Further, the inhibition in vivo at 0.01 % in diet in the series on KKA^y mice [1] (setting [4]) turned out to be 62%. Besides, in the series on KKA^y mice [2], the change in vivo at 0.01 % in diet was found to be 17% and the inhibition in vivo at 0.01 % in diet was 27%. Moreover, at PPARγ-RXRα heterodimer, it took 3.6 nM to reach a half-maximal effect (EC50).

With `Cc1oc(-c2ccccc2)nc1COc1ccc(COc2nn(C)cc2CC(=O)O)cn1` [Example 26, [1-methyl-3-[6-(5-methyl-2-phenyl-4-oxazolylmethoxy)-3-pyridylmethoxy]-1H-pyrazol-4-yl]acetic acid], the melting point was in the range of 139 to 140 °C. Moreover, in the series with KKA^y mice [1] (setting [3]), the inhibition in vivo at 0.01 % in diet stood at 56%. For the same compound, in the series with KKA^y mice [1] (setting [4]), the inhibition in vivo at 0.01 % in diet was 53%. In the series with KKA^y mice [2], the change in vivo at 0.01 % in diet came to 14% and the inhibition in vivo at 0.01 % in diet was 14%. Besides, the EC50 at PPARγ-RXRα heterodimer turned out to be 37 nM.

Source of the values: US7241785B2, “Five-membered heterocyclic alkanoic acid derivative” (Takeda Pharmaceutical Company Limited, priority 2001, dated 2007).
